This is an account of results in ChEMBL document CHEMBL3045587, “Oxidation of di- and polyamines: in vitro effect of amino aldehydes on the vitality of Leishmania promastigotes” (Med Chem Res, 2010).

Activity calls are given as the source filed them. No cut-off for these calls is given here.

Type in all cases: functional, organism-based
Assay [1] relates to Leishmania infantum. In words: Antiparasitic activity against promastigotes of Leishmania infantum MHOM-TN-80-IPT1 assessed as decrease in parasite density up to 3 mM measured at 4th and 7th day by microscopic analysis.
For assay [2], the system named is Leishmania infantum. Description: Antiparasitic activity against promastigotes of Leishmania infantum MHOM-TN-80-IPT1 assessed as decrease in promastigote vitality at 5 mM by counting chamber.
The subject of assay [3] is Leishmania infantum. In words: Antiparasitic activity against promastigotes of Leishmania infantum MHOM-TN-80-IPT1 assessed as decrease in parasite density at 1 to 5 mM measured at 4th and 7th day by microscopic analysis.
Assay [4] concerns Leishmania infantum. In words: Antiparasitic activity against promastigotes of Leishmania infantum MHOM-TN-80-IPT1 assessed as decrease in parasite vitality at 1 to 5 mM measured at 4th day by microscopic analysis.
Assay [5] deals with Leishmania infantum. In words: Increase in vitality of Leishmania infantum MHOM-TN-80-IPT1 promastigotes at 1 to 5 mM measured at 7th day by microscopic analysis.
Assay [6] deals with Leishmania infantum. Description: Increase in density of Leishmania infantum MHOM-TN-80-IPT1 promastigotes at 1 to 5 mM measured at 7th day by microscopic analysis.
Assay [7] relates to Leishmania infantum. In words: Antiparasitic activity against promastigotes of Leishmania infantum MHOM-TN-80-IPT1 assessed as decrease in parasite density at 1 to 5 mM measured at 4th day by microscopic analysis.

In the case of `NCCCNCCCC=O`, in the assay on Leishmania infantum [1], the inhibition entry is “Active”.

Consider `O=CCCNCCCCNCCC=O`, for which the inhibition entry with Leishmania infantum [2] and with Leishmania infantum [3] was “Active” throughout.

In the case of `NCCCC=O`, the inhibition result in the assay on Leishmania infantum [4] and in the assay on Leishmania infantum [7] was “Active” in each case. Besides, the outcome in the assay with Leishmania infantum [5] and in the assay on Leishmania infantum [6] was Active.

As for `NCCCCC=O`, the inhibition entry in the assay on Leishmania infantum [4] and in the assay on Leishmania infantum [7] was “Active” throughout. In addition, the outcome in the assay on Leishmania infantum [5] and in the assay with Leishmania infantum [6] was Active.
